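All cell lines were grown in 96-well plates and treated with compound for 48 hours. GI50 is the concentration that inhibits growth by half. TGI marks complete inhibition of growth.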
Tests used:
Experiment in all cases: growth of human tumour cells (NCI), 48 h
LOX IMVI melanoma = tested on: LOX IMVI melanoma
NCI-H522 lung = tested on: NCI-H522 lung
EKVX NSCLC = tested on: EKVX NSCLC
NCI-H23 lung = tested on: NCI-H23 lung
A549 NSCLC = tested on: A549 NSCLC
SK-MEL-2 melanoma = tested on: SK-MEL-2 melanoma
K-562 leukemia = tested on: K-562 leukemia
MOLT-4 leukemia = tested on: MOLT-4 leukemia
M14 melanoma = tested on: M14 melanoma
CAKI-1 renal = tested on: CAKI-1 renal

| Compound | TGI (LOX IMVI melanoma) [µM] | TGI (NCI-H522 lung) [µM] | TGI (EKVX NSCLC) [µM] | TGI (NCI-H23 lung) [µM] | TGI (A549 NSCLC) [µM] | TGI (SK-MEL-2 melanoma) [µM] | TGI (K-562 leukemia) [µM] | TGI (MOLT-4 leukemia) [µM] | TGI (M14 melanoma) [µM] | TGI (CAKI-1 renal) [µM] | GI50 (LOX IMVI melanoma) [µM] | GI50 (NCI-H522 lung) [µM] | GI50 (EKVX NSCLC) [µM] | GI50 (NCI-H23 lung) [µM] | GI50 (A549 NSCLC) [µM] | GI50 (SK-MEL-2 melanoma) [µM] | GI50 (MOLT-4 leukemia) [µM] | GI50 (CAKI-1 renal) [µM] | GI50 (M14 melanoma) [µM] |
| --- | --- | --- | --- | --- | --- | --- | --- | --- | --- | --- | --- | --- | --- | --- | --- | --- | --- | --- | --- |
| O=C1C=CC2(CCC23C=CC(=O)O3)O1 (stereo not drawn) | > 100 | > 100 | > 100 | > 100 | > 100 | > 100 | > 100 | > 100 | > 100 | – | – | – | – | – | – | – | – | – | – |
| C=C1C(=O)O[C@@H]2C[C@@]3(C)[C@H](O)CCC(=C)[C@@H]3C[C@H]12 | 20.7 | 17.6 | 29.7 | 25.5 | 70.5 | 40 | 10.2 | – | – | 19.6 | – | – | – | – | – | – | – | – | – |
| Cc1ccc(S(=O)(=O)Nc2ccccc2C(C)(C)C)cc1 | – | – | > 100 | 46.3 | > 100 | 60.2 | 50.1 | 62.8 | – | 59.3 | – | – | – | – | – | – | – | – | – |
| O=C(Nc1ccccc1C(=O)NC(=O)c1ccccc1NC(=O)c1ccccc1)c1ccccc1 | 13.9 | – | 28.3 | 17.1 | 23.1 | 3.93 | 18.3 | – | – | 29.1 | – | – | – | – | – | – | – | – | – |
| O=C1C2C(C(=O)N1Cc1ccccc1)N(Cc1ccccc1)C(=O)N2Cc1ccccc1 (stereo not drawn) | > 100 | > 100 | > 100 | > 100 | > 100 | – | > 100 | > 100 | > 100 | > 100 | – | – | – | – | – | – | – | – | – |
| O=C1OC(=O)c2c1nc1ccccc1c2-c1ccccc1 | > 100 | > 100 | – | – | > 100 | > 100 | > 100 | > 100 | > 100 | > 100 | – | – | – | – | – | – | – | – | – |
| C#Cc1cccc(NC(=O)/C=C\C(=O)O)c1 | – | > 100 | > 100 | > 100 | > 100 | > 100 | > 100 | > 100 | – | > 100 | – | – | – | – | – | – | – | – | – |
| N#Cc1c(-c2ccccc2)c(-c2ccccc2)cc2c(=O)c3ccc(Cl)cc3[nH]c12 | – | – | > 100 | > 100 | > 100 | > 100 | – | > 100 | – | – | – | – | – | – | – | – | – | – | – |
| C/C(=C/CCC(C)[C@@H]1CC[C@]2(C)C3=C(CC[C@@]12C)[C@@]1(C)CCC(=O)C(C)(C)[C@@H]1CC3)C(=O)O (stereo partly drawn) | 2.49 | 2.21 | 2.19 | 2.37 | 1.84 | 2.89 | – | 3.24 | 2.64 | 2.14 | 0.961 | 0.728 | 0.705 | 0.885 | 0.387 | 1.26 | 1.46 | 0.753 | 1.1 |
| N#Cc1ccccc1Sc1ccccc1N | > 100 | – | > 100 | > 100 | > 100 | > 100 | > 100 | > 100 | – | > 100 | – | – | – | – | – | – | – | – | – |
| O=C(Nc1nc2ccc(S(=O)(=O)Nc3ccc(C4(C(F)(F)F)CC4)cc3)cc2[nH]1)c1cnccn1 | 20.1 | 14.4 | 15 | 15.8 | 21.5 | 18.5 | – | – | 11.1 | 16.2 | 1.62 | 1.07 | 3.04 | 2.2 | 2.88 | 3.03 | – | 4.19 | 1.12 |
